Measured values reported in patent publication US11066414B2, “Cot modulators and methods of use thereof” (Gilead Sciences, Inc., priority 2015, dated 2021).

How the values were obtained:
[1] = tested on: TNFα; experiment: Cot Monocyte TNFα Cell Based Assay; details: Homo sapiens, Monocyte, read-out: EC50 TNF, LPS-stimulated human monocytes, TNFα
[2] = molecular target: Human Cot (Homo sapiens (Human), UniProt P41279); experiment: High Throughput Cot Biochemical Assay; details: IC50 HTRF, Cot HTRF (TR-FRET) biochemical assay
Chain of Human Cot (P41279 30-397): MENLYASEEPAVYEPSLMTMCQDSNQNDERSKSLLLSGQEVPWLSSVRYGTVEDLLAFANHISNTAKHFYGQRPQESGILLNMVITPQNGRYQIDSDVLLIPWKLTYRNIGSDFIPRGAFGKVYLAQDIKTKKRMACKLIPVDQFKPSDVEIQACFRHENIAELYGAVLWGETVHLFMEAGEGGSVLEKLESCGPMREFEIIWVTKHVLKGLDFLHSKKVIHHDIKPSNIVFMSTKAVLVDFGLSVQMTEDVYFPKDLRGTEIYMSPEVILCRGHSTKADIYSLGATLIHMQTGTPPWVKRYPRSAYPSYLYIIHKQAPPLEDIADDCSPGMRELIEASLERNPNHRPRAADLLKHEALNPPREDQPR

Compound | EC50 [1] | IC50 [2]
Cc1nc(F)ccc1[C@H](Nc1cc(Cl)c2ncc(C#N)c(NCC(C)(C)C(F)(F)F)c2c1)c1cn(C2(C(F)(F)F)CC2)nn1 [Example 721, (S)-8-chloro-6-(((6-fluoro-2-methylpyridin-3-yl)(1-(1-(trifluoromethyl)cyclopropyl)-1H-1,2,3-triazol-4-yl)methyl)amino)-4-((3,3,3-trifluoro-2,2-dimethylpropyl)amino)quinoline-3-carbonitrile] | 109 nM | 6 nM
Cc1nc(F)ccc1[C@H](Nc1cc(Cl)c2ncc(C#N)c(NCC(C)(C)S(C)(=O)=O)c2c1)c1cn(C2(C(F)(F)F)CC2)nn1 [Example 722, (S)-8-chloro-6-(((6-fluoro-2-methylpyridin-3-yl)(1-(1-(trifluoromethyl)-cyclopropyl)-1H-1,2,3-triazol-4-yl)methyl)amino) -4-((2-methyl-2-(methylsulfonyl)propyl)amino)-quinoline-3-carbonitrile] | 403 nM | 43 nM
CC[C@@H](Nc1c(C#N)cnc2c(Cl)cc(N[C@H](c3cn(C4(C(F)F)CC4)nn3)c3ccc(F)nc3C)cc12)c1ccccc1 [Example 723, 8-chloro-6-(((S)-(1-(1-(difluoromethyl)cyclopropyl)-1H-1,2,3-triazol-4-yl)(6-fluoro-2-methylpyridin-3-yl)methyl)amino)-4-(((R)-1-phenyl-propyl)amino)quinoline-3-carbonitrile] | 84 nM | 4 nM
Cn1ccc2c([C@H](Nc3cc(Cl)c4ncc(C#N)c(NCC(C)(C)C(F)(F)F)c4c3)c3cn(C4(C(F)F)CC4)nn3)cccc2c1=O [Example 724, (S)-8-chloro-6-(((1-(1-(difluoromethyl)cyclopropyl)-1H-1,2,3-triazol-4-yl)(2-methyl-1-oxo-1,2-dihydroisoquinolin-5-yl)methyl)amino)-4-((3,3,3-trifluoro-2,2-dimethylpropyl)amino)quinoline-3-carbonitrile] | 44 nM | 3 nM
CC(C)(CNc1c(C#N)cnc2c(Cl)cc(N[C@H](c3cn(C4(C(F)F)CC4)nn3)c3cccc4c(=O)[nH]ccc34)cc12)C(F)(F)F [Example 726, (S)-8-chloro-6-(((1-(1-(difluoromethyl)cyclopropyl)-1H-1,2,3-triazol-4-yl)(1-oxo-1,2-dihydroisoquinolin-5-yl)methyl)amino)-4-((3,3,3-trifluoro-2,2-dimethylpropyl)amino)quinoline-3-carbonitrile] | 127 nM | 4 nM
Cc1nc(F)ccc1[C@H](Nc1cc(Cl)c2ncc(C#N)c(NCC(C)(C)C(F)(F)F)c2c1)c1cn(C2(C(F)F)CC2)nn1 [Example 727, (S)-8-chloro-6-(((1-(1-(difluoromethyl)cyclopropyl)-1H-1,2,3-triazol-4-yl)(6-fluoro-2-methylpyridin-3-yl)methyl)amino)-4-((3,3,3-trifluoro-2,2-dimethylpropyl)amino)quinoline-3-carbonitrile] | 48 nM | 3 nM
Cn1cnc2c([C@H](Nc3cc(Cl)c4ncc(C#N)c(NCC(C)(C)C)c4c3)c3cn(C45CC(C4)C5)nn3)cccc2c1=O [Example 728, (S)-6-(((1-(bicyclo[1.1.1]pentan-1-yl)-1H-1,2,3-triazol-4-yl)(3-methyl-4-oxo-3,4-dihydroquinazolin-8-yl)methyl)amino)-8-chloro-4-(neopentylamino)quinoline-3-carbonitrile] | 154 nM | 7 nM
COc1ccc([C@H](Nc2cc(Cl)c3ncc(C#N)c(NCC(C)(C)C)c3c2)c2cn(C3(C(F)F)CC3)nn2)c(C)n1 [Example 729, (S)-8-chloro-6-(((1-(1-(difluoromethyl)cyclopropyl)-1H-1,2,3-triazol-4-yl)(6-methoxy-2-methylpyridin-3-yl)methyl)amino)-4-(neopentylamino)quinoline-3-carbonitrile] | 108 nM | 5 nM
Cn1ccc2c([C@H](Nc3cc(Cl)c4ncc(C#N)c(NCC5(C(F)(F)F)CCC5)c4c3)c3cn(C4(C(F)F)CC4)nn3)cccc2c1=O [Example 730, (S)-8-chloro-6-(((1-(1-(difluoromethyl)cyclopropyl)-1H-1,2,3-triazol-4-yl)(2-methyl-1-oxo-1,2-dihydroisoquinolin-5-yl)methyl)amino)-4-(((1-(trifluoromethyl)cyclobutyl)methyl)-amino)quinoline-3-carbonitrile] | 89 nM | 10 nM
Cc1nc(F)ccc1[C@H](Nc1cc(Cl)c2ncc(C#N)c(NCC3(C(F)(F)F)CCC3)c2c1)c1cn(C2(C(F)F)CC2)nn1 [Example 731, (S)-8-chloro-6-(((1-(1-(difluoromethyl)cyclopropyl)-1H-1,2,3-triazol-4-yl)(6-fluoro-2-methylpyridin-3-yl)methyl)amino)-4-(((1-(trifluoromethyl)cyclobutyl)-methyl)amino)quinoline-3-carbonitrile] | 179 nM | 11 nM

Next, values leading:

EC50 [1] | IC50 [2] | Compound
779 nM | 11 nM | Cc1c([C@H](Nc2cc(Cl)c3ncc(C#N)c(NCC(C)(C)C)c3c2)c2cn(C3(C(F)F)CC3)nn2)ccc(=O)n1C [Example 732, (S)-8-chloro-6-(((1-(1-(difluoromethyl)cyclopropyl)-1H-1,2,3-triazol-4-yl)(1,2-dimethyl-6-oxo-1,6-dihydropyridin-3-yl)methyl)amino)-4-(neopentylamino)quinoline-3-carbonitrile]
835 nM | 42 nM | Cc1nc(F)ccc1[C@H](Nc1cc(Cl)c2ncc(C#N)c(NCC3C(C)(C)C3(C)C)c2c1)c1cn(C2(C(F)F)CC2)nn1 [Example 733, (S)-8-chloro-6-(((1-(1-(difluoromethyl)cyclopropyl)-1H-1,2,3-triazol-4-yl)(6-fluoro-2-methylpyridin-3-yl)methyl)amino)-4-(((2,2,3,3-tetramethylcyclopropyl)methyl)-amino)quinoline-3-carbonitrile]
313 nM | 41 nM | CC(C)(C)CNc1c(C#N)cnc2c(Cl)cc(N[C@H](c3cn(C4(C(F)(F)F)CC4)nn3)c3cccc4nccnc34)cc12 [Example 734, (S)-8-chloro-4-(neopentylamino)-6-((quinoxalin-5-yl(1-(1-(trifluoromethyl)-cyclopropyl)-1H-1,2,3-triazol-4-yl)methyl)amino)quinoline-3-carbonitrile]
478 nM | 47 nM | Cn1ccc2c([C@H](Nc3cc(Cl)c4ncc(C#N)c(NCC(C)(C)C)c4c3)c3cn(C45CC(C4)C5)nn3)cccc21 [Example 735, (S)-6-(((1-(bicyclo[1.1.1]pentan-1-yl)-1H-1,2,3-triazol-4-yl)(1-methyl-1H-indol-4-yl)methyl)amino)-8-chloro-4-(neopentylamino)quinoline-3-carbonitrile]
645 nM | 117 nM | Cn1ccc2c([C@H](Nc3cc(Cl)c4ncc(C#N)c(NCC(C)(C)C)c4c3)c3cn(C4(C(F)F)CC4)nn3)cccc21 [Example 736, (S)-8-chloro-6-(((1-(1-(difluoromethyl)cyclopropyl)-1H-1,2,3-triazol-4-yl)(1-methyl-1H-indol-4-yl)methyl)amino)-4-(neopentylamino)quinoline-3-carbonitrile]
91 nM | 3 nM | CN1Cc2c(cccc2[C@H](Nc2cc(Cl)c3ncc(C#N)c(NCC(C)(C)C)c3c2)c2cn(C3(C(F)F)CC3)nn2)C1=O [Example 737, (S)-8-chloro-6-(((1-(1-(difluoromethyl)cyclopropyl)-1H-1,2,3-triazol-4-yl)(2-methyl-1-oxoisoindolin-4-yl)methyl)amino)-4-(neopentylamino)quinoline-3-carbonitrile]
40 nM | 2 nM | CC(C)(C)CNc1c(C#N)cnc2c(Cl)cc(N[C@H](c3cn(C4CC4)nn3)c3csc4cnccc34)cc12 [Example 738, (S)-8-chloro-6-(((1-cyclopropyl-1H-1,2,3-triazol-4-yl)(thieno[2,3-c]pyridin-3-yl)methyl)amino)-4-(neopentylamino)quinoline-3-carbonitrile]
254 nM | 21 nM | Cc1nc(F)ccc1[C@H](Nc1cc(Cl)c2ncc(C#N)c(NCC34CC(C3)C4)c2c1)c1cn(C2(C(F)F)CC2)nn1 [Example 739, (S)-4-((bicyclo[1.1.1]pentan-1-ylmethyl)amino)-8-chloro-6-(((1-(1-(difluoromethyl)cyclopropyl)-1H-1,2,3-triazol-4-yl)(6-fluoro-2-methylpyridin-3-yl)methyl)amino)quinoline-3-carbonitrile]
311 nM | 45 nM | Cc1nc(F)ccc1[C@H](Nc1cc(Cl)c2ncc(C#N)c(NCC34CC(C3)C4)c2c1)c1cn(C2(C(F)(F)F)CC2)nn1 [Example 740, (S)-4-((bicyclo[1.1.1]pentan-1-ylmethyl)amino)-8-chloro-6-(((6-fluoro-2-methylpyridin-3-yl)(1-(1-(trifluoromethyl)cyclopropyl)-1H-1,2,3-triazol-4-yl)methyl)amino)quinoline-3-carbonitrile]
120 nM | 6 nM | CC(C)(C)CNc1c(C#N)cnc2c(Cl)cc(N[C@H](c3cn(C4(C(F)(F)F)CC4)nn3)c3csc4cnccc34)cc12 [Example 741, (S)-8-chloro-4-(neopentylamino)-6-((thieno[2,3-c]pyridin-3-yl(1-(1-(trifluoromethyl)cyclopropyl)-1H-1,2,3-triazol-4-yl)methyl)amino)quinoline-3-carbonitrile]
199 nM | 17 nM | Cc1nc(F)ccc1[C@H](Nc1cc(Cl)c2ncc(C#N)c(Nc3cnc(F)c(F)c3)c2c1)c1cn(C2(C(F)F)CC2)nn1 [Example 742, (S)-8-chloro-6-(((1-(1-(difluoromethyl)cyclopropyl)-1H-1,2,3-triazol-4-yl)(6-fluoro-2-methylpyridin-3-yl)methyl)amino)-4-((5,6-difluoropyridin-3-yl)amino)quinoline-3-carbonitrile]
